In patent US20130059888A1:
Structures can show the parent of a compound that is named as a salt. Where two headings read alike, the source gives them in different places.

How the values were obtained:
[1] = tested on: Alzheimer-type dementia patients
Method: Patient. […] After 11 months from the start of the donepezil hydrochloride administration, concomitant administration of sustained release tablets of sodium valproate (twice a day after breakfast and dinner with 200 mg tablet×2) was started.
Patient. […] After 35 months from the start of the donepezil hydrochloride administration, concomitant administration of sustained release tablets of sodium valproate (twice a day after breakfast and dinner with 200 mg tablet×2) was started.
Patient. […] Concomitant administration of sustained release tablets of sodium valproate (twice a day after breakfast and dinner with 200 mg tablet×2) was started 48 months after the start of the donepezil hydrochloride administration. […] Sustained release tablets of sodium valproate (200 mg tablet×3) were administered from eight months after the start of the concomitant administration.

Alzheimer-type dementia = settings: donepezil hydrochloride alone; cited from earlier work
[2] = tested on: Alzheimer-type dementia patients; settings: cited from earlier work; for Improving effect on the behavioral and psychological symptoms such as agitation: solely administered, Am. J. Geriatr. Psychiatry 2005

| Structure (SMILES) | Problem behaviors ([1]; Example 1 patient, donepezil alone 5 mg once a day, two months from start) | Symptoms observed ([1]; Example 2 patient, donepezil alone 5 mg once a day, two months after start) | Symptoms observed ([1]; Example 2 patient, donepezil alone, four months after start) | Symptoms observed ([1]; Example 3 patient, donepezil alone 5 mg once a day, 15 months after start) | Symptoms observed ([1]; Example 3 patient, donepezil alone, 23 months after start) | Symptoms observed ([1]; Example 3 patient, donepezil alone, 25 months after start) | Symptoms observed ([1]; Example 4 patient, donepezil alone 5 mg once a day, two months after start) | Inspection findings ([1]; Example 5 patient, donepezil alone 5 mg once a day, 24 months after start) | Symptoms observed ([1]; Example 5 patient, donepezil alone, 41 months after start) | Cognitive disorder ([1]; Example 5 patient, donepezil alone, thirty nine months after start) | Duration of improving action against the cognitive symptoms (Alzheimer-type dementia) | Effect on the cognitive symptoms (Alzheimer-type dementia) | Improving effect on the behavioral and psychological symptoms such as agitation [2] | Side reactions ([2]; general statement on valproic acid and a salt thereof) |
| --- | --- | --- | --- | --- | --- | --- | --- | --- | --- | --- | --- | --- | --- | --- |
| COc1cc2c(cc1OC)C(=O)C(CC1CCN(Cc3ccccc3)CC1)C2 (stereo not drawn) [donepezil hydrochloride] | did not subside | symptoms of incontinentia and the like were observed | visual hallucination, incontinentia, aggressive attitude and the like were observed | dressing apraxia was observed | visual hallucination, soliloquy, emotional attitude, dressing apraxia, and stereotypy were observed | visual hallucination, delusion of persecution and the like | visual hallucination was not observed, but they spoke only their events in the old days and showed stereotypy | atrophy of the hippocampus was marked | refusal of oral administration of medicaments, soliloquy and dressing apraxia | advanced | about one year at the longest | certain effects for retarding onset or relieving of the cognitive symptoms | – | – |
| CCCC(CCC)C(=O)[O-].[Na+] [sodium valproate] | – | – | – | – | – | – | – | – | – | – | – | – | no improving effect | – |
| CCCC(CCC)C(=O)O [valproic acid] | – | – | – | – | – | – | – | – | – | – | – | – | does not exhibit any improving effect | little side reactions such as sleepiness |
